Measured values: US5112815A, “9α-hydroxy-3-oxo-4,24(25)-stigmastadien-26-oic acid derivatives, a process for preparing same and pharmaceutical compositions containing same” (Richer Gedeon Vegyeszet, priority 1989, dated 1992)

Experiments:
[1] = tested on: cholesterol biosynthesis (rat liver homogenate); experiment: Inhibition of cholesterol biosynthesis: incorporation of radiolabelled acetic acid into cholesterol in rat liver homogenate; type: biochemical, Hannover Wistar male rats; details: 2 h at 37° C.
From the text: The cholesterol-biosynthesis-inhibiting effect of the compounds according to the invention is illustrated by the example of 9 α-hydroxy-3-oxo-4,24(25)-stigmastadien-26-oic acid (I, wherein M stands for hydrogen). The inhibitory effect of this compound was compared with that of 3β-hydroxy-5α-cholest-8(14)-en-15-one (Colestolone) by the method of A. Endo and co-workers [Eur. J. Biochem. 77, 31 (1977); Biochem. Biophys. Acta 486, 71 (1977)] studying in rat liver homogenate the incorporation of radiolabelled acetic acid into cholesterol.
Hannover Wistar male rats weighing 50-60 g were used for the experiment. Before the experiments the animals were fed for a week with rat chew enriched with 5% cholestyramine, in a reversed light cycle (light from 4 p.m. to 4 a.m., and dark from 4 a.m. to 4 p.m.). The food and water were available ad libitum.
The animals were decapitated on the day of the experiment, Livers were immersed in ice cold Krebs/Ringer bicarbonate buffer (pH 7.4) and cut into small pieces. Using a tissue homogenizer in a gentle mode of operation we prepared a crude liver homogenate of which a portion equivalent to 100 mg of wet liver was weighed into glass-stoppered tubes. The operations were carried out under constant cooling. The incubation mixture included the liver homogenate, the Krebs/Ringer bicarbonate buffer, the sodium-(1-^14 C)acetate (supplied by IZINTA; specific activity: 14.86 MBq/mg) and the (^3 H)cholesterol oleate (supplied by Du Pont; specific activity: 3067 GBq/mmole). The steroids inhibiting cholesterol biosynthesis were added to the incubation mixture in an alcoholic solution containing albumin, as described by G. J. Schroepfer and co-workers [J. Biol. Chem. 24, 8975 (1977)]. The final volume of the incubation mixture was 2.0 ml. Incubation went on for 2 hours in a water bath of 37° C., then 2 ml of alcohol containing 15% (w/v) of KOH were added to the mixture, which was then kept at 70°-75° C. for further 2 hours. The lipids were extracted from the alkaline mixture by petroleum ether. After evaporation of the solvent in nitrogen stream the dry residue was dissolved in a mixture of acetone and ethanol, then the cholesterol was precipitated by a solution of digitonin. The precipitate was centrifuged and dissolved in scintillation cocktail. The activity was measured for 5 minutes using a Hitachi scintillation spectrometer.

[2] = tested on: serum cholesterol; details: several animal species and humans, literature; cited from earlier work

| SMILES | Inhibition, % ([1]; concentration 2.5 μM) [%] | Inhibition, % ([1]; concentration 10.0 μM) [%] | serum cholesterol-lowering effect [2] |
| --- | --- | --- | --- |
| CC(C)CCC[C@@H](C)[C@H]1CC(=O)C2=C3CC[C@H]4C[C@@H](O)CC[C@]4(C)[C@H]3CC[C@@]21C [3β-Hydroxy-5α-cholest-8(14)-en-15-one, 3β-hydroxy-5α-cholest-8(14)-en-15-one] | 16.6 | 55.0 | significant serum cholesterol-lowering effect |
| CCC(CC[C@@H](C)[C@H]1CC[C@H]2[C@@H]3CCC4=CC(=O)CC[C@]4(C)[C@@]3(O)CC[C@]12C)=C(C)C(=O)O [9α-hydroxy-3-oxo-4,24(25)-stigmastadien-26-oic acid] | 65.3 | 86.3 |  |
